Experimental data from patent publication US7056655B2, “Methods for monitoring and guiding therapeutic suppression of parathyroid hormone in renal patients having secondary hyperparathyroidism” (Scantibodies Laboratory, Inc., priority 2001, dated 2006).

How the values were obtained:
Assay type in all cases: in vivo
Total PTH = assay: Clinical trial in ESRD patients: total PTH assay (Scantibodies) on blood samples; conditions: for Total PTH decrease: median values; for Total PTH: median of ninety patients, 5.5 μg intravenously every three days
Procedure: (§1) A clinical trial was held for ninety ESRD patients. Each patient had been receiving vitamin D suppressant therapy in accordance with the manufacturer's guidelines. Each patient was removed from the therapy for a washout period of four weeks, and this was confirmed by a rise in PTH measurements after removal of the therapeutic. PTH maxacalcitol (made by Chugai Pharmaceutical Corporation of Tokyo, Japan) suppressant therapy was started after the washout at a constant administration of 5.5 μg intravenously every three days. Blood samples were obtained from each patient after the washout (week 0), six weeks after therapy restart (week 6), and twelve weeks after therapy restart (week 12). The samples were assayed for PTH agonist levels and PTH antagonist levels using the PTH agonist assay and total PTH assay made by Scantibodies Laboratory, Inc. The samples were assayed for bone specific alkaline phosphatase using a commercially available immunoassay from Hybritech, Inc. of San Diego, Calif.
(§2) The results of the assays for the ninety patients are shown in FIG. 2 and the following table as median values: […]

[1] = test system: bone specific alkaline phosphatase; assay: Clinical trial in ESRD patients: bone specific alkaline phosphatase immunoassay (Hybritech); conditions: for Alkaline Phosphatase decrease: median values; for Alkaline Phosphatase: median of ninety patients, 5.5 μg intravenously every three days
Procedure: as §1, §2

PTH antagonist = assay: Clinical trial in ESRD patients: PTH antagonist level (total PTH minus PTH agonist); conditions: for PTH antagonist decrease: 6 weeks versus 0 weeks; for PTH antagonist decrease / PTH antagonist increase: median values; for PTH antagonist increase: 12 weeks versus 6 weeks; for PTH antagonist: median of ninety patients, 5.5 μg intravenously every three days
Description: PTH antagonist levels should be measured using an assay that either directly detects PTH antagonist (but not PTH agonist) or indirectly through a total PTH measurement that measures the sum of the PTH agonist and PTH antagonist. An indirect measurement subtracts the PTH agonist value from the total PTH value, deriving the PTH antagonist value. Thus, one should use a total PTH assay that is designed to have essentially 100% cross-reactivity with PTH antagonist and PTH agonist. For example, Scantibodies Laboratory Total Intact PTH Assay or Scantibodies Laboratory Intact PTH Assay are appropriate assays.
as §1, §2

PTH agonist = assay: Clinical trial in ESRD patients: PTH agonist assay (Scantibodies) on blood samples; conditions: for PTH agonist decrease: median values; for PTH agonist: median of ninety patients, 5.5 μg intravenously every three days
Procedure: as §1, §2

[2] = 6 weeks versus 0 weeks, listed as PTH suppressant
[3] = 12 weeks versus 6 weeks, listed as PTH suppressant

`C=C1/C(=C\C=C2/CCC[C@]3(C)[C@@H]([C@H](C)OCCC(C)(C)O)CC[C@@H]23)C[C@@H](O)C[C@@H]1O` [maxacalcitol] was tested, and the “Total PTH decrease” value (Total PTH; 6 weeks versus 0 weeks) was “(41% decrease)”, the “Total PTH decrease” value (Total PTH; [2]) was 41% and the “Total PTH decrease” value (Total PTH; 12 weeks versus 6 weeks) was “(1% decrease)”. The “Total PTH decrease” value (Total PTH; [3]) was 0.8%, the “Total PTH” value (Total PTH; 6 weeks (0 weeks: 886)) was 531 pg/mL and the “Total PTH” value (Total PTH; 12 weeks (0 weeks: 886)) was 525 pg/mL. For the same compound, the “Alkaline Phosphatase decrease” value ([1]; 6 weeks versus 0 weeks) was “(13% decrease)”, the “Alkaline Phosphatase decrease” value ([1]; 12 weeks versus 6 weeks) was “(16% decrease)” and the “Alkaline Phosphatase” value ([1]; 6 weeks (0 weeks: 396)) was 344 U/ml. The “Alkaline Phosphatase” value ([1]; 12 weeks (0 weeks: 396)) was 290 U/ml, the PTH antagonist decrease (PTH antagonist) was “(42% decrease)” and the PTH antagonist decrease (PTH antagonist; listed as PTH suppressant) was 42%. For the same compound, the PTH antagonist increase (PTH antagonist) was “(21% increase)”, the PTH antagonist increase (PTH antagonist; listed as PTH suppressant) was 21% and the PTH antagonist (PTH antagonist; 6 weeks (0 weeks: 276)) was 160 pg/mL. The PTH antagonist (PTH antagonist; 12 weeks (0 weeks: 276)) was 194 pg/mL, the PTH agonist decrease (PTH agonist; 6 weeks versus 0 weeks) was “(41% decrease)” and the PTH agonist decrease (PTH agonist; [2]) was 41%. For the same compound, the PTH agonist decrease (PTH agonist; 12 weeks versus 6 weeks) was “(8% decrease)”, the PTH agonist decrease (PTH agonist; [3]) was 8% and the PTH agonist (PTH agonist; 6 weeks (0 weeks: 609)) was 361 pg/mL. The PTH agonist (PTH agonist; 12 weeks (0 weeks: 609)) was 331 pg/mL.
